Assay results: patent US8501166B2, “Pyrimidinyl indole compounds” (Hutchison Medipharma Limited, priority 2010, dated 2013)

Experiments:
[1] = test system: SKOV-3x-FF-luci human ovarian cancer xenograft; assay: Anti-tumor effects in SKOV-3x-FF-luci xenograft (alternate protocol, 23 days); format: in vivo, Balb/c nu/nu mice
Protocol: Alternately, the test compound is evaluated for its anti-tumor effects on tumor growth of human ovarian cancer SKOV-3x-FF-luci in nude mice. SKOV-3x-FF-luci cell line (ATCC) is cultured in McCoy's 5a medium containing 10% fetal calf serum. Female Balb/c nu/nu mice (6-7 weeks old) are injected peritoneally with 0.2 mL of cell suspension containing 2×10^6 cells. Mice are randomized and divided into four groups six days after cell implantation. The test compound at doses of 30 and 100 mg/kg is orally administered to animals twice a day for 23 consecutive days. Mice in the control group are administered the vehicle (10% Acacia), twice a day. Mice in the positive control group are injected with Cisplatin (4 mg/kg) via the tail vein once a week. At the end of the treatment, all mice are euthanized with CO2 and tumor nodules in the peritoneal cavity, diaphragmatic muscle, mesenterium, liver, spleen, and ovaries are dissected, harvested, and combined for the measurement of weight. Inhibition rate: IR %=(tumor weight in control−tumor weight in drug treated)/tumor weight in control×100%).

[2] = test system: collagen induced arthritis; assay: Collagen induced arthritis (CIA) model in mice; format: in vivo, DBA/1 mice
Protocol: Previous studies have shown that small molecular inhibitors of IKKβ are efficacious in a mouse CIA model (Podolin, P L et al, J. Pharm. Exp. Ther., 2005, 312: 373-381). In addition, mice with T cells expressing a dominant—negative form of IkBa are protected from developing CIA (Seetharaman R. et al. J. Immunol. 1999: 163, 1577-1583). […] Therefore a compound of the present invention is tested in the collagen induced arthritis (CIA) model in mice essentially as described in a method reported in the literature (Rosloniec E F, Cremer M, Kang A, Myers L K. Current Protocols in Immunology. 1996, 15.5.1-15.5.24).
Briefly, DBA/1 mice are immunized intradermally with chicken collagen II (200 μg/mouse) emulsified with Freund's complete adjuvant (CFA, Sigma, US) on day 0 and day 21 to elicit arthritis. The severity of arthritis is assessed using a visual scoring system, in which each paw is graded from 0 to 4 (0=normal, 4=severe swelling of the entire paw). The hind joint thicknesses are measured with a micrometer. The testing compound is orally administered for either prophylactic or therapeutic purposes. For the prophylactic study, the testing compound is orally administered twice daily from day 1 to day 42. For the therapeutic study, the drug treatment is started after the onset of arthritis, which usually occurs within one week of 2nd immunization. Mice are treated with the drug for 21 days. […]

Cl.O=C(NC1CC1)c1cccc2[nH]c(-c3nc(N[C@@H]4CCC[C@H]4O)ncc3Cl)cc12 [Example 2, 2-{5-Chloro-2-[(1R,2R)-2-hydroxycyclopentylamino]pyrimidin-4-yl}-N-cyclopropyl-1H-indole-4-carboxamide hydrochloride]
tumor inhibition rate (IR) ([1]; 30 mg/kg oral twice a day): 59.3% | tumor inhibition rate (IR) ([1]; 100 mg/kg oral twice a day): 93.9% | joint swelling and arthritis scores ([2]; 10 and 30 mg/kg bid (20 and 60 mg/kg/day)): Statistically significant inhibition of joint swelling and reduction of arthritis scores | ED50 ([2]; 1008 h, mouse CIA, oral bid for 42 days, read-out: ED50, joint swelling and arthritis scores): 4.3 mg/kg
